The text below walks through data of the supplement of paper PMC10949913.

Assay in all cases: area under concentration-response curve (viability) (AUC (a.u.)); higher = less active
Settings in all cases: 48 h

The subject of one assay is CU-ACC2. In a few lines: (§1)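 Library compounds were dispensed at 11 concentrations (23 nL each) onto three adrenocortical carcinoma cell lines in 1,536-well plates. Luminescence was recorded after 48 h using CellTiter-Glo, and signals were normalised per plate to vehicle and empty-well controls. Fitted concentration-response curves of inhibitory or non-responding classes only supplied the AC50 and area under the curve.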

A further assay has as its system NCI-H295R. The essentials: as §1
The subject of another assay is CU-ACC1. The essentials:
as §1

Take `O=C(CCc1ccc(O)cc1)c1c(O)cc(O)cc1O`: the “area under concentration-response curve” value in the assay with CU-ACC2 was 653; with NCI-H295R, 585; with CU-ACC1, 531.
Consider `COc1ccc([C@@H]2Sc3ccccc3N(CCN(C)C)C(=O)[C@@H]2OC(C)=O)cc1`, for which the “area under concentration-response curve” value in the assay on CU-ACC2 came out at 576; in the assay with NCI-H295R, 533; in the assay on CU-ACC1, 473.
Take `CC(C)(C)C#Cc1cc(N(C(=O)[C@H]2CC[C@H](C)CC2)[C@H]2CC[C@@H](O)CC2)c(C(=O)O)s1`: the entries for the “area under concentration-response curve” value in the assay on CU-ACC2, in the assay with NCI-H295R and with CU-ACC1 were 478, 497 and 497, respectively.
As for `CC(C)C(=O)OCC(=O)[C@@]12O[C@@H](O[C@@H]1C[C@H]3[C@@H]4CC\C5=C\C(=O)\C=C/[C@]5(C)[C@H]4[C@@H](O)C[C@]23C)C6CCCCC6`, the results for the “area under concentration-response curve” value in the assay with CU-ACC2, with NCI-H295R and in the assay on CU-ACC1 were 606, 531 and 523, respectively.
On the same counts, the results for `NC/1=N/C(=O)C2=C([NH]C=C2CCC3=CC=C(C=C3)C(=O)N[C@@H](CCC(O)=O)C(O)=O)N1` are 590, 537 and 523.
In the case of `COc1cc2c(NC3CCN(C4CCCCC4)CC3)nc(N3CCCN(C(C)C)CC3)nc2cc1OCCCN1CCCCC1`, the “area under concentration-response curve” value in the assay on CU-ACC2 amounted to 562; in the assay on NCI-H295R it was 519; with CU-ACC1, 534.
As to `O=C(O)CCNC(=O)c1ccc(/N=N/c2ccc(O)c(C(=O)O)c2)cc1`, the “area under concentration-response curve” value was 635 in the assay with CU-ACC2, 589 in the assay with NCI-H295R and 519 in the assay on CU-ACC1.
The corresponding values for `O=C(NCC(=O)N1CC[C@H](NC2CCC(O)(c3ccc(-c4ncccn4)cn3)CC2)C1)c1cccc(C(F)(F)F)c1` (stereo partly specified) are 606, 560 and 554.
On the same counts, the results for `Cn1c(COP(=O)(NCCBr)NCCBr)cnc1[N+](=O)[O-]` are 575, 514 and 394.
On to `COc1cc[nH]c2ncc(C(=O)C(=O)N3CCN(C(=O)c4ccccc4)C[C@H]3C)c1-2`, for which the “area under concentration-response curve” value in the assay with CU-ACC2 is 632; in the assay with NCI-H295R, 560; with CU-ACC1, 545.
As to `Clc1cc2c(NC3CCCC3)nnc(-c3ccncc3)c2cc1Cl`, the “area under concentration-response curve” value with CU-ACC2 amounted to 609; with NCI-H295R it was 518; in the assay on CU-ACC1, 581.
For `C=C[C@H]1CN2CCC1C[C@@H]2C(O)c1ccnc2ccc(OC)cc12` (stereo partly specified), the “area under concentration-response curve” value in the assay on CU-ACC2 was found to be 595; in the assay on NCI-H295R, 504; in the assay with CU-ACC1, 509.
On the same counts, the results for `CCC(C)C(N)\C1=N\C(CS1)C(=O)N[C@@H](CC(C)C)C(=O)N[C@H](CCC(O)=O)C(=O)N[C@@H]([C@@H](C)CC)C(=O)N[C@H]2CCCCNC(=O)[C@H](CC(N)=O)NC(=O)[C@@H](CC(O)=O)NC(=O)[C@H](CC3=CN=C[NH]3)NC(=O)[C@@H](CC4=CC=CC=C4)NC(=O)[C@@H](NC(=O)[C@@H](CCCN)NC2=O)[C@@H](C)CC` (stereo partly specified) are 682, 582 and 593.
For `C[C@H](Cc1ccc(O)c(O)c1)[C@@H](C)Cc1ccc(O)c(O)c1`, the figures for the “area under concentration-response curve” value in the assay on CU-ACC2, with NCI-H295R and with CU-ACC1 were 565, 532 and 496, respectively.
Regarding `OC[C@@H](O)[C@@H](O)[C@H](O)[C@@H](O)CO`, the results for the “area under concentration-response curve” value in the assay with CU-ACC2, with NCI-H295R and in the assay with CU-ACC1 were 645, 592 and 562, respectively.
Consider `CO[C@H]1/C=C/O[C@@]2(C)Oc3c(C)c(O)c4c(c3C2=O)C2=NC3(CCN(CC(C)C)CC3)NC2=C(NC(=O)/C(C)=C/C=C/[C@H](C)[C@H](O)[C@@H](C)[C@@H](O)[C@@H](C)[C@H](OC(C)=O)[C@@H]1C)C4=O`, for which the “area under concentration-response curve” value amounted to 607 with CU-ACC2, 530 with NCI-H295R and 491 with CU-ACC1.
In the case of `CN1[C@@H]2CC(O)C[C@H]1[C@@H]1O[C@@H]12` (stereo partly specified), the “area under concentration-response curve” value in the assay on CU-ACC2 was determined as 560; in the assay on NCI-H295R, 496; in the assay with CU-ACC1, 460.
Consider `C=CC[N+]1([C@H]2C[C@H]3[C@@H]4CC[C@H]5C[C@H](O)[C@@H](N6CCOCC6)C[C@]5(C)[C@H]4CC[C@]3(C)[C@H]2OC(C)=O)CCCC1`, for which the “area under concentration-response curve” value in the assay with CU-ACC2 is 639; in the assay on NCI-H295R, 610; with CU-ACC1, 597.
For `CN1CCN2c3ncccc3Cc3ccccc3C2C1` (stereo unspecified), the “area under concentration-response curve” value in the assay with CU-ACC2 was 579; in the assay on NCI-H295R, 556; in the assay on CU-ACC1, 494.
Regarding `CCCNC(=O)c1cn2ncnc(Nc3cc(C(=O)NC4CC4)ccc3C)c2c1C`, the “area under concentration-response curve” value in the assay on CU-ACC2 was 654; with NCI-H295R, 583; with CU-ACC1, 539.
`Cc1ccsc1C(=CCCN1CCC[C@@H](C(=O)O)C1)c1sccc1C`: the “area under concentration-response curve” value in the assay on CU-ACC2 is 593; with NCI-H295R it was 541; in the assay on CU-ACC1, 488.
For `CC(C)(C)c1nc(-c2cccc(N[S+](=O)([O-])c3c(F)cccc3F)c2F)c(-c2ccnc(N)n2)s1`, the figures for the “area under concentration-response curve” value in the assay on CU-ACC2, with NCI-H295R and in the assay with CU-ACC1 were 608, 542 and 542, respectively.
As for `CN(C)NC(=O)CCC(=O)O`, the “area under concentration-response curve” value is 410 in the assay with CU-ACC2, 397 in the assay on NCI-H295R and 405 with CU-ACC1.
For the compound `Cc1c(NC(=O)c2cc(C(N)=O)nc3cc(F)ccc23)c(C(F)(F)F)nn1Cc1ccc(C(C)(C)C)cc1`, the “area under concentration-response curve” value in the assay on CU-ACC2 worked out at 589; in the assay with NCI-H295R, 533; in the assay with CU-ACC1, 506.
On the same counts, the results for `C[C@H]1O[C@H](O[C@H]2[C@H](O)[C@@H](O)[C@@H](O[C@H]3[C@H](O)[C@@H](O)C(O)O[C@@H]3CO)O[C@@H]2CO)[C@H](O)[C@@H](O)[C@@H]1N[C@H]1C=C(CO)[C@@H](O)[C@H](O)[C@H]1O` (stereo partly specified) are 482, 447 and 414.
`CCC1(C)CC(=O)NC1=O` (stereo unspecified): the “area under concentration-response curve” value in the assay on CU-ACC2 was found to be 603; in the assay on NCI-H295R, 551; with CU-ACC1, 497.
Consider `CCN1/C(=C/C(C)=O)Sc2ccc(OC)cc21`, for which the figures for the “area under concentration-response curve” value in the assay with CU-ACC2, with NCI-H295R and with CU-ACC1 were 569, 515 and 467, respectively.
In the case of `CCOC(=O)Nc1ccc(NCc2ccc(F)cc2)nc1N`, the “area under concentration-response curve” value is 439 with CU-ACC2, 504 in the assay on NCI-H295R and 446 with CU-ACC1.
On the same counts, the results for `OC1=CC2=C(C(=O)\C=C(/O2)C3=CC=CC=C3)C(=C1O)O` are 462, 489 and 458.
As for `COC(=O)[C@H](Cc1ccccc1)NC(=O)[C@@H](N)CC(=O)O`, the “area under concentration-response curve” value is 618 in the assay on CU-ACC2, 558 in the assay with NCI-H295R and 518 in the assay with CU-ACC1.
For `CC1=CC=C(C=C1)\C2=N\C3=CC=C(Cl)C=C3OC2`, the “area under concentration-response curve” value stood at 613 in the assay on CU-ACC2, 546 in the assay with NCI-H295R and 504 with CU-ACC1.
For the compound `O=[N+]([O-])c1cnc(Sc2nnc(O)n2-c2ccc3c(c2)OCCO3)s1`, the “area under concentration-response curve” value in the assay on CU-ACC2 was found to be 611; in the assay on NCI-H295R, 517; in the assay with CU-ACC1 it was 529.
Regarding `COCCNc1cc(NC(=O)N2CCCc3cc(CN4CCN(C)CC4=O)c(C=O)nc32)ncc1C#N`, the “area under concentration-response curve” value with CU-ACC2 was 550; in the assay on NCI-H295R, 564; in the assay on CU-ACC1, 552.
In the case of `CC(C)(C)OC(=O)N[C@H]1CCCCC/C=C\[C@@H]2C[C@@]2(C(=O)N[S+](=O)([O-])C2CC2)NC(=O)[C@@H]2C[C@@H](OC(=O)N3Cc4cccc(F)c4C3)CN2C1=O`, the results for the “area under concentration-response curve” value in the assay with CU-ACC2, with NCI-H295R and in the assay on CU-ACC1 were 503, 472 and 414, respectively.
In the case of `COc1ccc(CC2SC(=O)NC2=O)cc1C(=O)NCc1ccc(C(F)(F)F)cc1` (stereo unspecified), the results for the “area under concentration-response curve” value with CU-ACC2, in the assay on NCI-H295R and in the assay on CU-ACC1 were 645, 585 and 570, respectively.
The corresponding values for `C=C[C@H]1CN2CC[C@H]1C[C@H]2[C@H](O)c1ccnc2ccc(OC)cc12` are 602, 521 and 501.
Regarding `CCN(CC)CCCC(C)Nc1ccnc2cc(Cl)ccc12` (stereo unspecified), the results for the “area under concentration-response curve” value with CU-ACC2, in the assay with NCI-H295R and with CU-ACC1 were 638, 583 and 464, respectively.
